# Assay results reported in US7105312B2, “Ca2+/calmodulin-dependent protein kinase IV” (Duke University, priority 2001, dated 2006).
# Experiments:
# [1] = tested on: p38; test: p38 activation in neutrophils in response to fMLP or TPA; format: cell-based, mice or humans; conditions: in response to either fMLP or TPA
# Protocol: (§1) In isolated peripheral neutrophils from normal mice or humans, the responses of neutrophils to stimulation by the chemotactic peptide, fMLP, or by the phorbol ester, PMA, was evaluated. […] It was known that the […], p38, is required for the respiratory burst that follows neutrophil activation. […] BM neutrophils have been isolated from normal and Camk4−/− mice and p38 activation in response to PMA has been evaluated.
# [2] = tested on: isolated peripheral neutrophils; test: Neutrophil respiratory burst and hydrogen peroxide production after stimulation by fMLP or PMA; format: cell-based; conditions: isolated peripheral neutrophils from normal mice or humans
# Protocol: as §1
structure (smiles),measurement,setting,value
COc1ccc(S(=O)(=O)N(CCO)c2ccccc2CN(C)C/C=C/c2ccc(Cl)cc2)cc1 [KN-93],p38 activation,[1],prevented
same,hydrogen peroxide production,[2],completely inhibited
same,respiratory burst,[2],completely inhibited
